As usually defined, the inhibition is the drop in the measured response relative to a control, in per cent.

The target in this assay is T1, Mac-1 (Homo sapiens, UniProt P05107+P11215).
T1 construct: isolate neutrophils from ethylenediaminetetraacetic acid (EDTA)-treated venous blood obtained from healthy human volunteers; endogenous in cells; host or cells: human neutrophils (PMN) isolated from venous blood of healthy volunteers
The experiment in a line: Human neutrophil Mac-1 adhesion assay (fMLP-stimulated PMN adhesion to KLH-coated plates). In kind it is cell-based. The following applies: human neutrophils, read-out: percent drug inhibition vs. stimulus control.

T1 sequence (P05107 23-769, other chains not shown): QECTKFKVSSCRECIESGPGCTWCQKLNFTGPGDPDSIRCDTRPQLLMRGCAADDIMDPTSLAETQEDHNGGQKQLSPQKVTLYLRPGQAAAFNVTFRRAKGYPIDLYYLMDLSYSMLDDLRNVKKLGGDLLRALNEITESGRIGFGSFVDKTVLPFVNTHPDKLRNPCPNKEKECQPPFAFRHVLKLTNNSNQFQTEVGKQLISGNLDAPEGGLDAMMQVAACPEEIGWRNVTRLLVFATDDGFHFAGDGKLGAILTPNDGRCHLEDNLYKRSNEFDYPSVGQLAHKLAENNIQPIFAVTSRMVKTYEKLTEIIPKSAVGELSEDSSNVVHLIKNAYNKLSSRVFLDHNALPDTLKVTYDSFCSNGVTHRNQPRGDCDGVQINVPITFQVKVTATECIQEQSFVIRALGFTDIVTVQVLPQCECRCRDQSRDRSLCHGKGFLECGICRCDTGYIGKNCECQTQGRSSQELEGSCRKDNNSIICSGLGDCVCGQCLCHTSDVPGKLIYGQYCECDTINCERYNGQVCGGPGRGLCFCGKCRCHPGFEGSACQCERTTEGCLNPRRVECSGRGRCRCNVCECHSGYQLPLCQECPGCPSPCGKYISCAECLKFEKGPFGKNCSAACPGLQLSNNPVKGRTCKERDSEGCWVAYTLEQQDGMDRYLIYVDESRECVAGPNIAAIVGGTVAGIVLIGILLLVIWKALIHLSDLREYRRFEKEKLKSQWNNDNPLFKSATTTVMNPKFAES
Method: Protocol for Human Neutrophil Mac-1 Adhesion Assay
Namely, we utilized Ferrante and Thong's methodology to isolate neutrophils from ethylenediaminetetraacetic acid (EDTA)-treated venous blood obtained from healthy human volunteers. Keyhole limpet hemocyanin (KLH) coated microtiter plates were prepared as follows:
All pipetting was automated using the Cetus Pro/Pette (Perkin-Elmer; division of Applied Biosystems, Foster, Calif.). KLH, Megathura crenulata; Calbiochem-Novabiochem, La Jolla, Calif., was prepared at a concentration of 0.5 mg/mL in Dulbecco's PBS phosphate buffered saline (PBS) with Ca^++, pH 7.2 (DPBS).
Microtiter plates are prewashed with 50% EtOH for 1 hour at 37° C., then drained and blotted to dryness. Then 0.3 mL KLH solution was pipetted into each well of the 96 well microtiter plate, covered and incubated overnight at 37° C. […]
a. mean unstimulated cell control OD is determined and subtracted from all other values b. mean net stimulated, e.g., FMLP, control values are determined c. mean drug values are determined and percent drug inhibition vs. stimulus control are calculated as follows: [formula] d. IC50 determinations, plotting logdose vs. percent inhibition, are determined by linear regression analysis using the least squares method.

As to `CC(C)Oc1c(C(=O)Nc2nnn[nH]2)sc2c1CCC2` [Example 2, 3-Isopropoxy-5,6-dihydro-4H-cyclopenta[b]thiophene-2-carboxylic acid (1H-tetrazol-5-yl)-amide], the inhibition at 33 µM stood at 27%.
For `CC(C)Oc1c(C(=O)Nc2nnn[nH]2)sc2c1CS(=O)(=O)CC2` [Example 6, 3-Isopropoxy-5,5-dioxo-6,7-dihydro-4H-thieno[3,2-c]thiopyran-2-carboxylic acid (1H-tetrazol-5-yl) amide] the value was 38%.

Values taken from patent publication US5464855A, “Thiophene-2-carboxamidotetrazoles and pharmaceutical use thereof” (Warner-Lambert Company, priority 1994, dated 1995).
